Series [1] concerns the target human OATP1B1 (Homo sapiens (Human), UniProt Q9Y6L6). The series can be described thus: In Vitro Inhibition Assessment with Human OATP1B1 Transporter. It is filed as in vitro ADME. As to conditions: HEK293-OATP1B1 cells, probe substrate pravastatin. A digest of the protocol:
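HEK293-OATP1B1 and mock cells were preincubated 15 min with compound in HBSS. They were then coincubated 5 min with compound plus pravastatin (0.4% DMSO final), and intracellular substrate was quantified by LC-MS/MS. Mock-corrected uptake relative to solvent gave percentage activity, from which IC50 was fitted.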

The target of series [2] is human KHK-C (Homo sapiens (Human), UniProt P50053). The series can be described thus: KHK Biochemical Assay (IC50), ADP-Glo, KHK-C. As to conditions: average of at least two separate assays. A digest of the protocol:
(§1)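 ADP-Glo luminescence measured ADP made over a 4 h room-temperature reaction of ATP plus fructose, started after 30 min compound–enzyme pre-incubation. Buffer: 50 mM Hepes pH 7.4, 140 mM KCl, 5 mM MgCl2, 0.01% Triton-X. Enzyme was His-tagged, BL21 (DE3)-expressed, Ni-NTA-purified; compounds in 1:3 DMSO dilution series.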
In general terms: ADP-Glo first removes unused ATP, then detects ADP through luciferase.

The test system of series [3] is HepG2 cells. The series can be described thus: F1P Cell-Based Assay (EC50), 13C6-fructose-1-phosphate in HepG2 cells (cell culture medium or 50% human plasma).
For series [4], the target named is KHK-C expressed in NRK-52E cells (Homo sapiens (Human), UniProt P50053). The series can be described thus: KHK-C Cell-based Assay (EC50), NRK CTG, fructose-mediated ATP-depletion.
The target in series [5] is human KHK-A (Homo sapiens (Human), UniProt P50053). The series can be described thus: KHK Biochemical Assay (IC50), ADP-Glo, KHK-A. As to conditions: average of at least two separate assays. The method in brief:
as §1

Where [6] appears, read: Homo sapiens, HepG2, HepG2 cells, 50% human plasma, read-out: F1P 50% HP EC50.
Where [7] appears, read: Homo sapiens, HepG2, read-out: F1P 10% FBS EC50, HepG2 cells, cell culture medium (10% FBS).

Where two headings read alike, the source gives them in different places.

Chain of human KHK-A (P50053 other isoform, or with tags, fused parts or gaps): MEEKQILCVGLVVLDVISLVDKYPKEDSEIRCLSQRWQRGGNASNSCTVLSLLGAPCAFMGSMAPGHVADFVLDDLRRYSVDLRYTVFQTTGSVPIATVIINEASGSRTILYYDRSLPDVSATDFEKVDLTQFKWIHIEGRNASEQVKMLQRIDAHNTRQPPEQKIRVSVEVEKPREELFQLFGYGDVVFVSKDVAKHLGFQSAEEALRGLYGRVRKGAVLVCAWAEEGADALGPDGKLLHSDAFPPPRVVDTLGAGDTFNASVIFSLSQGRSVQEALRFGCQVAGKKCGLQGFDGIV
Chain of human KHK-C (P50053 whole entry): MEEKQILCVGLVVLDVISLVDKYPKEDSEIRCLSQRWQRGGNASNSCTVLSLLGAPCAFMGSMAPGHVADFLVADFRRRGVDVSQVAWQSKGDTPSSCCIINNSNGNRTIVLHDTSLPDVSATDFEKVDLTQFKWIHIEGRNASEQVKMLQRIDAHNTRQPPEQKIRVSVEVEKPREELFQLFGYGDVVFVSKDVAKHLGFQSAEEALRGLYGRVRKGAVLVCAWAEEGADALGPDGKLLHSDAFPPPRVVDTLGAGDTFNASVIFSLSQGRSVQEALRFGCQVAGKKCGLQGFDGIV
Chain of KHK-C expressed in NRK-52E cells (P50053 whole entry): as above
Chain of human OATP1B1 (Q9Y6L6 whole entry): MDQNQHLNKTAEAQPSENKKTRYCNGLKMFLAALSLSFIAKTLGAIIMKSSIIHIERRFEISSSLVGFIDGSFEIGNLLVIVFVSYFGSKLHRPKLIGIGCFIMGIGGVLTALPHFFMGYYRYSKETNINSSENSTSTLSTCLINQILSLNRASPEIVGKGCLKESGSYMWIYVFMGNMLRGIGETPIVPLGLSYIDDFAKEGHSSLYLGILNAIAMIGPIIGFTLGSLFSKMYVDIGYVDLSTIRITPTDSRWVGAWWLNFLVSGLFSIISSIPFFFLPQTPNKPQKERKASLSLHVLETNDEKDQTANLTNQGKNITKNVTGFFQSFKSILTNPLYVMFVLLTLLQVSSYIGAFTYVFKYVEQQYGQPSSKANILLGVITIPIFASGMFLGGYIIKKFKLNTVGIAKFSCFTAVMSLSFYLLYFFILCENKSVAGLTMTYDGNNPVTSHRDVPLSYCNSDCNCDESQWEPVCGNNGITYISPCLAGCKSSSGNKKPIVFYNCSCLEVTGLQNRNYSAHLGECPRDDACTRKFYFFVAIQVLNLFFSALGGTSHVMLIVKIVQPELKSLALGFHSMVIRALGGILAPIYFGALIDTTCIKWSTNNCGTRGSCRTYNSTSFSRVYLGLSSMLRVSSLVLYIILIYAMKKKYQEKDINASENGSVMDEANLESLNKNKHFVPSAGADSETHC

In the case of `C[C@H]1[C@H](O)CN1c1nc(-c2ccc3c(c2)OCC3NS(C)(=O)=O)c2c(n1)C(F)(F)CC2` (mixture of isomers) [Example 465], the figures for the IC50 in series [1] and in series [2] were 4580 nM and 1.4 nM, respectively. Also, the EC50 in series [3] (setting [6]) is 33.5 nM; in series [3] (setting [7]), 15.4 nM; in series [4], 14.9 nM.

For `C[C@H]1CCN1c1nc2c(c(-c3cccc([C@H]4C[C@@H]4C(=O)O)c3)n1)CCC2` (single isomer, unassigned) [Example 89], the IC50 in series [5] (ADP-Glo) was 6 nM; in series [1] it was 160 nM; in series [2] (ADP-Glo), 3.3 nM. Further, the EC50 came to 311 nM in series [3] (setting [6]), 35.7 nM in series [3] (setting [7]) and 37 nM in series [4].

`C[C@H]1[C@H](O)CN1c1nc(-c2ccc3c(c2)CC[C@@]32COC(=O)N2)c2c(n1)C(F)(F)CC2` (single isomer, unassigned) [Example 476]: the IC50 worked out at 10.9 nM in series [5], 5980 nM in series [1] and 0.2 nM in series [2]. Further, the concentration for a half-maximal effect (EC50) was 37.5 nM in series [3] (setting [6]), 23.5 nM in series [3] (setting [7]) and 9.5 nM in series [4].

Consider `C[C@H]1[C@H](O)CN1c1nc(-c2ccc3c(c2)OC[C@@]32COC(=O)N2)c2c(n1)C(F)(F)CC2` (single isomer, unassigned) [Example 483], for which the IC50 in series [5] was determined as 4.6 nM; in series [1], 17400 nM; in series [2] it was 0.2 nM. Also, the results for the EC50 in series [3] (setting [6]), in series [3] (setting [7]) and in series [4] were 18.4 nM, 5.3 nM and 5.4 nM, respectively.

As for `C[C@H]1[C@H](O)CN1c1nc(-c2ccc3c(c2)OC[C@@]32COCC(=O)N2)c2c(n1)C(F)(F)CC2` (single isomer, unassigned) [Example 499], the half-maximal inhibitory concentration (IC50) amounted to 2.4 nM in series [5], 24300 nM in series [1] and 0.2 nM in series [2]. The EC50 came out at 6.4 nM in series [3] (HepG2 cells, 50% human plasma, read-out: F1P 50% HP EC50); 3 nM in series [3] (read-out: F1P 10% FBS EC50, HepG2 cells, cell culture medium (10% FBS)); 1.6 nM in series [4] (read-out: NRK CTG EC50, NRK-52E cells, Cell-Titer Glo, 25 mM fructose).

Regarding `C[C@H]1[C@H](O)CN1c1nc(-c2ccc(C(N)=O)cc2)c2c(n1)C(F)(F)CC2` [Example 129, 4-(7,7-difluoro-2-((2S,3R)-3-hydroxy-2-methylazetidin-1-yl)-6,7-dihydro-5H-cyclopenta[d]pyrimidin-4-yl)benzamide], the results for the half-maximal inhibitory concentration (IC50) in series [5] (ADP-Glo), in series [1] and in series [2] (ADP-Glo) were 14 nM, 13200 nM and 6.4 nM, respectively. Further, the EC50 in series [3] (setting [6]) was 36.7 nM; in series [3] (setting [7]) it was 18.8 nM; in series [4], 80.8 nM.

Take `CCOc1cc(-c2nc(N3C[C@@H](O)[C@@H]3C)nc3c2CCC3(F)F)ccc1C(N)=O` [Example 170, 4-(7,7-difluoro-2-((2S,3R)-3-hydroxy-2-methylazetidin-1-yl)-6,7-dihydro-5H-cyclopenta[d]pyrimidin-4-yl)-2-ethoxybenzamide]: the IC50 in series [1] is 892 nM; in series [2] (ADP-Glo), 11.2 nM. For the same compound, the figures for the 50% effective concentration (EC50) in series [3] (setting [6]), in series [3] (setting [7]) and in series [4] were 80.3 nM, 30.2 nM and 46.1 nM, respectively.

`COc1cc(-c2nc(N3C[C@@H](O)[C@@H]3C)nc3c2CCC3(F)F)ccc1C(N)=O` [Example 177, 4-(7,7-difluoro-2-((2S,3R)-3-hydroxy-2-methylazetidin-1-yl)-6,7-dihydro-5H-cyclopenta[d]pyrimidin-4-yl)-2-methoxybenzamide]: the IC50 in series [1] was found to be 3710 nM; in series [2] (ADP-Glo) it was 14.3 nM. The EC50 in series [3] (setting [6]) worked out at 66.6 nM; in series [3] (setting [7]) it was 28.4 nM; in series [4], 88.6 nM.

For `C[C@H]1[C@H](O)CN1c1nc(-c2ccc3c(c2)CCCNC3=O)c2c(n1)C(F)(F)CC2` [Example 178, 7-(7,7-difluoro-2-((2S,3R)-3-hydroxy-2-methylazetidin-1-yl)-6,7-dihydro-5H-cyclopenta[d]pyrimidin-4-yl)-2,3,4,5-tetrahydro-1H-benzo[c]azepin-1-one], the IC50 was 1350 nM in series [1] and 5.4 nM in series [2] (ADP-Glo). In addition, the EC50 in series [3] (setting [6]) is 41 nM; in series [3] (setting [7]) it was 22.1 nM; in series [4], 27.4 nM.

For the compound `C[C@H]1[C@H](O)CN1c1nc2c(c(-c3ccc(C(N)=O)cc3)n1)CCC2` [Example 197, 4-[2-[(2S,3R)-3-hydroxy-2-methyl-azetidin-1-yl]-6,7-dihydro-5H-cyclopenta[d]pyrimidin-4-yl]benzamide], the results for the IC50 in series [5] (ADP-Glo), in series [1] and in series [2] (ADP-Glo) were 65.5 nM, 5920 nM and 51.6 nM, respectively. Further, the EC50 is 191 nM in series [3] (setting [6]), 120 nM in series [3] (setting [7]) and 379 nM in series [4].

Consider `C[C@H]1[C@H](O)CN1c1nc(-c2ccc3c(=O)[nH]ccc3c2)c2c(n1)C(F)(F)CC2` [Example 318, 6-(7,7-difluoro-2-((2S,3R)-3-hydroxy-2-methylazetidin-1-yl)-6,7-dihydro-5H-cyclopenta[d]pyrimidin-4-yl)isoquinolin-1(2H)-one], for which the IC50 in series [5] (ADP-Glo) was found to be 6 nM; in series [1], 350 nM; in series [2] (ADP-Glo) it was 1.6 nM. Also, the EC50 was determined as 16.1 nM in series [3] (setting [6]), 9.3 nM in series [3] (setting [7]) and 9.1 nM in series [4].

Take `C[C@H]1[C@H](O)CN1c1nc2c(c(-c3ccc4c(N)nccc4c3)n1)CCC2` [Example 385, (2S,3R)-1-[4-(1-amino-6-isoquinolyl)-6,7-dihydro-5H-cyclopenta[d]pyrimidin-2-yl]-2-methyl-azetidin-3-ol]: the half-maximal inhibitory concentration (IC50) in series [1] came to 687 nM. In addition, the EC50 turned out to be 11.1 nM in series [3] (setting [6]), 6.5 nM in series [3] (setting [7]) and 4.2 nM in series [4].

Take `C[C@H]1CCN1c1nc2c(c(-c3cc4cc[nH]c(=O)c4s3)n1)CCC2` [Example 392, 2-[2-[(2S)-2-methylazetidin-1-yl]-6,7-dihydro-5H-cyclopenta[d]pyrimidin-4-yl]-6H-thieno[2,3-c]pyridin-7-one]: the concentration for half-maximal inhibition (IC50) in series [1] was 100 nM; in series [2] (ADP-Glo), 1.5 nM. The concentration for a half-maximal effect (EC50) in series [3] (setting [6]) worked out at 85.1 nM; in series [3] (setting [7]), 10.9 nM; in series [4], 3 nM.

In the case of `C[C@H]1[C@H](O)CN1c1nc(-c2cccc(CN(C)S(C)(=O)=O)c2)c2c(n1)C(F)(F)CC2` [Example 462, N-(3-(7,7-difluoro-2-((2S,3R)-3-hydroxy-2-methylazetidin-1-yl)-6,7-dihydro-5H-cyclopenta[d]pyrimidin-4-yl)benzyl)-N-methylmethanesulfonamide], the IC50 was 2760 nM in series [1] and 3.2 nM in series [2]. The 50% effective concentration (EC50) is 33.7 nM in series [3] (setting [6]), 9.6 nM in series [3] (setting [7]) and 9.2 nM in series [4].

Take `C[C@H]1CCN1c1nc2c(c(-c3ccc4nc(N)[nH]c(=O)c4c3)n1)CCC2` [Example 463, (S)-2-amino-6-(2-(2-methylazetidin-1-yl)-6,7-dihydro-5H-cyclopenta[d]pyrimidin-4-yl)quinazolin-4(3H)-one]: the IC50 in series [1] was 1360 nM; in series [2] it was 3.9 nM. The concentration for a half-maximal effect (EC50) is 46.3 nM in series [3] (setting [6]), 7.3 nM in series [3] (setting [7]) and 150 nM in series [4].

As for `C[C@H]1[C@H](O)CN1c1nc(-c2cccc(S(C)(=N)=O)c2)c2c(n1)C(F)(F)CC2` (some centres unmarked) [Example 464], the results for the IC50 in series [1] and in series [2] were > 40000 nM and 15.7 nM, respectively. Moreover, the values for the EC50 in series [3] (setting [6]), in series [3] (setting [7]) and in series [4] were 55.1 nM, 45.8 nM and 55 nM, respectively.

`C[C@H]1CCN1c1nc(-c2ccc3c(c2)CCNC3)c2c(n1)C(F)(F)CC2` [Example 642, 6-[7,7-difluoro-2-[(2S)-2-methylazetidin-1-yl]-5,6-dihydrocyclopenta[d]pyrimidin-4-yl]-1,2,3,4-tetrahydroisoquinoline]: the half-inhibitory concentration (IC50) in series [1] came to 22500 nM; in series [2], 0.9 nM. In addition, the EC50 is 2.4 nM in series [3] (setting [6]), 1.1 nM in series [3] (setting [7]) and 4.1 nM in series [4].

For `C[C@H]1[C@H](O)CN1c1nc(-c2ccc3c(c2)O[C@H](CO)CNC3=O)c2c(n1)C(F)(F)CC2` [Example 705, (S)-8-(7,7-difluoro-2-((2S,3R)-3-hydroxy-2-methylazetidin-1-yl)-6,7-dihydro-5H-cyclopenta[d]pyrimidin-4-yl)-2-(hydroxymethyl)-3,4-dihydrobenzo[f][1,4]oxazepin-5(2H)-one], the values for the IC50 in series [1] and in series [2] were 8910 nM and 3.2 nM, respectively. For the same compound, the concentration giving a half-maximal response (EC50) worked out at 55.2 nM in series [3] (setting [6]), 52.4 nM in series [3] (setting [7]) and 630 nM in series [4].

On to `C[C@H]1CCN1c1nc(-c2ccc(C3(N)CS(=O)(=O)C3)cc2)c2c(n1)C(F)(F)CC2` [Example 769, (S)-3-amino-3-(4-(7,7-difluoro-2-(2-methylazetidin-1-yl)-6,7-dihydro-5H-cyclopenta[d]pyrimidin-4-yl)phenyl)thietane 1,1-dioxide], for which the IC50 was found to be 19100 nM in series [1] and 0.8 nM in series [2]. Further, the concentration for a half-maximal effect (EC50) in series [3] (setting [6]) was found to be 18.4 nM; in series [3] (setting [7]), 6.7 nM; in series [4], 3.1 nM.

One may read the IC50 as the concentration that inhibits the measured activity by half. Higher therefore signals a need for much substance. By EC50 is commonly meant the concentration at which the effect is half-maximal.
